Experimental data taken from US20250339441A1, “METHODS OF TREATING CANCER” (FOGHORN THERAPEUTICS INC., priority 2022, published 2025).

Columns and labels:
[1] = Population PK model (nonlinear mixed-effects, two-compartment) of oral Compound A patient concentration vs. time data; format: in vivo, human
Description: A population PK model based on orally administered Compound A dosing data in a total of 10 patients with metastatic uveal melanoma (UM) and advanced hematologic malignancies (e.g., acute myeloid leukemia (AML)) was performed.
Nonlinear mixed-effects models were fitted to concentration vs. time data of FHD-286. Various compartmental models with linear elimination (1-, 2- and 3-compartment), absorption models, structures of omega on clearances, volumes and absorption parameters (diagonal and block) were developed to assess the PK of Compound A.
Overall, a two-compartment model with linear elimination, a zero-order oral absorption, and a lag time of absorption adequately characterized the concentration-time profiles of Compound A.
Exploratory analysis of covariate effects was performed with appropriate plots presenting relationships between the ETAs (e.g., values reflecting the difference between and individual's parameter value and that of the population) of PK parameters to identify any remaining covariate trends. […] Therefore a “Multiple Dose Effect” on CL was included in the model to account for this change over time.
No other covariates were included as part of the model.

[2] = Phase 1 dose escalation clinical trial of Compound A, oral, in subjects with metastatic uveal melanoma; format: in vivo
Description: A Phase 1 dose escalation clinical trial of Compound A is conducted. The trial is primarily intended to determine the maximum tolerated dose (MTD) and/or recommended phase 2 dose of the compound when administered orally to subjects with metastatic uveal melanoma (UM).
In this ongoing study, Compound A has been administered at dose levels of 2.5 mg once a day (QD), 5 mg QD, 7.5 mg QD, and 10 mg QD to 17 subjects with metastatic UM. […] In evaluable subjects, myeloid differentiation and reduction in bone marrow and/or peripheral blasts have been observed.

[3] = final population PK model, oral, 10 patients

Compound: COC[C@H](NC(=O)c1ccn(S(C)(=O)=O)c1)C(=O)Nc1nc(-c2cccc(N3C[C@@H](C)O[C@@H](C)C3)n2)cs1 [Compound A, N-(1-((4-(6-(2,6-dimethylmorpholino)pyridin-2-yl)thiazol-2-yl)amino)-3-methoxy-1-oxopropan-2-yl)-1-(methylsulfonyl)-1H-pyrrole-3-carboxamide]
- change in clearance (CL) over time ([1]; after multiple doses): reduction
- CL, Estimate [1, 3]: 4.07 L/h
- CLp, Estimate [1, 3]: 30.6 L/h
- Tlag, Estimate (lag time of absorption) [1, 3]: 0.452 h
- Vc, Estimate [1, 3]: 54.6 L
- Vd, Estimate [1, 3]: 165 L
- Dur, Estimate (zero-order oral absorption) ([1]; final population PK model, oral, 10 patients with metastatic UM and advanced hematologic malignancies): 1.77 h
- myeloid differentiation ([2]; in evaluable subjects): observed
- reduction in bone marrow and/or peripheral blasts ([2]; in evaluable subjects): observed
- dose limiting toxicity ([2]; one subject at the 7.5 mg QD dose level, improved with a dose hold): Grade 3 keratitis
- half-life (preliminary PK analysis) ([2]; oral 2.5, 5, 7.5, 10 mg QD, 17 subjects with metastatic UM, preliminary): long
- plasma concentrations of the compound versus dose ([2]; oral 2.5-10 mg QD, subjects with metastatic UM, preliminary): increase with increasing dose
